# What was measured:
# human V1a receptor = target: T1, human V1a receptor (Homo sapiens, UniProt P37288); assay: Cellular in vitro assay for determining vasopressin receptor activity, V1a receptor cell line (CHO, aequorin luminescence); type: cell-based; settings: for IC50: CHO cell line transfected with human V1a receptor, [Arg]-vasopressin at EC50 concentration, read-out: IC50 hV1a; for ratio IC50 hV2/hV1a: selectivity ratio IC50 hV2 / IC50 hV1a
# T1 construct: expressed in transfected cells; host or cells: CHO K1 (ATCC), also stably transfected with a modified aequorin
# T1 sequence (P37288 whole entry): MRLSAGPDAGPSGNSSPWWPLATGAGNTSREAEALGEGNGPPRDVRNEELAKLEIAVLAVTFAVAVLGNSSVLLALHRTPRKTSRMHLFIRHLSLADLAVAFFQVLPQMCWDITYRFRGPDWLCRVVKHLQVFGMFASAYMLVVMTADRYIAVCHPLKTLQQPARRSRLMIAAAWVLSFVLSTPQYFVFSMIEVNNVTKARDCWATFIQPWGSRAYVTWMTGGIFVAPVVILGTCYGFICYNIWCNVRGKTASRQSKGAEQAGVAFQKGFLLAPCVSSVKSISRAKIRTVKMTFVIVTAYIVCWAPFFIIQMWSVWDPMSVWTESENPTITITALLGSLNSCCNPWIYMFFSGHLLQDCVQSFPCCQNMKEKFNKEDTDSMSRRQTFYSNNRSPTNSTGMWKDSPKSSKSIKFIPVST
# Outline: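 IC50 from inhibition of [Arg]-vasopressin (EC50 concentration)-evoked aequorin luminescence in CHO K1 cells, with 10-min compound pretreatment.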
# human V2 receptor = target: T2, human V2 receptor (Homo sapiens, UniProt P30518); assay: Cellular in vitro assay for determining vasopressin receptor activity, V2 receptor cell line (CHO, CRE-luciferase); type: cell-based; settings: CHO cell line transfected with human V2 receptor; [Arg8]-vasopressin at EC50 concentration, 3 hours; read-out: IC50 hV2
# T2 construct: expressed in transfected cells; host or cells: CHO K1 (ATCC) expressing firefly luciferase under a CRE-responsive promoter
# T2 sequence (P30518 whole entry): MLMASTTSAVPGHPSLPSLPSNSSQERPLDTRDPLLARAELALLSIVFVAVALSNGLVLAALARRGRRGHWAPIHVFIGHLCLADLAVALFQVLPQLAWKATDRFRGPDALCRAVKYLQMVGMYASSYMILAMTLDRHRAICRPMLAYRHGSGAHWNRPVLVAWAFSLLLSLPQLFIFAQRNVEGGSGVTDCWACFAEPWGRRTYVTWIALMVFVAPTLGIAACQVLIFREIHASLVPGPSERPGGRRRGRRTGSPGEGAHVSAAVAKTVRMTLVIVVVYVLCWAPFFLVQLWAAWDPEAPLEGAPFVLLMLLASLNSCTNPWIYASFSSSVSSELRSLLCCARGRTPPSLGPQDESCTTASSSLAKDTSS
IC50 (human V1a receptor) [nM],ratio IC50 hV2/hV1a (human V1a receptor),IC50 (human V2 receptor) [nM],SMILES
2.5,22.0,55,"Cc1csc(NC(=O)c2ccccc2-n2cnc(Cn3nc(-c4ccc(Cl)cc4)n(C[C@H](O)C(F)(F)F)c3=O)n2)n1 [Example 259, 2-[3-({3-(4-Chlorophenyl)-5-oxo-4-[(2S)-3,3,3-trifluoro-2-hydroxypropyl]-4,5-dihydro-1H-1,2,4-triazol-1-yl}methyl)-1H-1,2,4-triazol-1-yl]-N-(4-methyl-1,3-thiazol-2-yl)benzamide]"
25.5,29.8,760,"CC1=C(C)CN(C(=O)c2ccccc2-n2cnc(Cn3nc(-c4ccc(Cl)cc4)n(C[C@H](O)C(F)(F)F)c3=O)n2)CC1 [Example 260, 5-(4-Chlorophenyl)-2-[(1-{2-[(4,5-dimethyl-3,6-dihydropyridin-1(2H)-yl)carbonyl]phenyl}-1H-1,2,4-triazol-3-yl)methyl]-4-[(2S)-3,3,3-trifluoro-2-hydroxypropyl]-2,4-dihydro-3H-1,2,4-triazol-3-one]"
1.45,310.3,450,"CCN(OC)C(=O)c1ccccc1-n1cnc(Cn2nc(-c3ccc(Cl)cc3)n(C[C@H](O)C(F)(F)F)c2=O)n1 [Example 261, 2-[3-({3-(4-Chlorophenyl)-5-oxo-4-[(2S)-3,3,3-trifluoro-2-hydroxypropyl]-4,5-dihydro-1H-1,2,4-triazol-1-yl}methyl)-1H-1,2,4-triazol-1-yl]-N-ethyl-N-methoxybenzamide]"
3.4,258.8,880,"O=C(c1ccccc1-n1cnc(Cn2nc(-c3ccc(Cl)cc3)n(C[C@H](O)C(F)(F)F)c2=O)n1)N1C[C@@H]2C[C@H]1CO2 [Example 262, 5-(4-Chlorophenyl)-2-[(1-{2-[(1S,4S)-2-oxa-5-azabicyclo[2.2.1]hept-5-ylcarbonyl]phenyl}-1H-1,2,4-triazol-3-yl)methyl]-4-[(2S)-3,3,3-trifluoro-2-hydroxypropyl]-2,4-dihydro-3H-1,2,4-triazol-3-one]"
32.5,256.9,8350,"O=CN1CCN(C(=O)c2ccccc2-n2cnc(Cn3nc(-c4ccc(Cl)cc4)n(C[C@H](O)C(F)(F)F)c3=O)n2)CC1 [Example 263, 4-{2-[3-({3-(4-Chlorophenyl)-5-oxo-4-[(2S)-3,3,3-trifluoro-2-hydroxypropyl]-4,5-dihydro-1H-1,2,4-triazol-1-yl}methyl)-1H-1,2,4-triazol-1-yl]benzoyl}piperazine-1-carbaldehyde]"
2.45,512.2,1260,"CN(C)C(=O)c1ccccc1-n1cnc(Cn2nc(-c3ccc(Cl)cc3)n(C[C@H](O)C(F)(F)F)c2=O)n1 [Example 264, 2-[3-({3-(4-Chlorophenyl)-5-oxo-4-[(2S)-3,3,3-trifluoro-2-hydroxypropyl]-4,5-dihydro-1H-1,2,4-triazol-1-yl}methyl)-1H-1,2,4-triazol-1-yl]-N,N-dimethylbenzamide]"
34.5,255.1,8800,"O=C1CCN(C(=O)c2ccccc2-n2cnc(Cn3nc(-c4ccc(Cl)cc4)n(C[C@H](O)C(F)(F)F)c3=O)n2)CCN1 [Example 265, 1-{2-[3-({3-(4-Chlorophenyl)-5-oxo-4-[(2S)-3,3,3-trifluoro-2-hydroxypropyl]-4,5-dihydro-1H-1,2,4-triazol-1-yl}methyl)-1H-1,2,4-triazol-1-yl]benzoyl}-1,4-diazepan-5-one]"
3.85,223.4,860,"CC1CCN(C(=O)c2ccccc2-n2cnc(Cn3nc(-c4ccc(Cl)cc4)n(C[C@H](O)C(F)(F)F)c3=O)n2)C(C)C1 (stereo partly drawn) [Example 266, 5-(4-Chlorophenyl)-2-[(1-{2-[(2,4-dimethylpiperidin-1-yl)carbonyl]phenyl}-1H-1,2,4-triazol-3-yl)methyl]-4-[(2S)-3,3,3-trifluoro-2-hydroxypropyl]-2,4-dihydro-3H-1,2,4-triazol-3-one]"
33.5,119.4,4000,CC1CN(C(=O)c2ccccc2-n2cnc(Cn3nc(-c4ccc(Cl)cc4)n(C[C@H](O)C(F)(F)F)c3=O)n2)CCN1C (stereo partly drawn) [Example 267]
3.65,265.8,970,"O=C(c1ccccc1-n1cnc(Cn2nc(-c3ccc(Cl)cc3)n(C[C@H](O)C(F)(F)F)c2=O)n1)N1CCC(F)(F)C1 [Example 268, 5-(4-Chlorophenyl)-2-[(1-{2-[(3,3-difluoropyrrolidin-1-yl)carbonyl]phenyl}-1H-1,2,4-triazol-3-yl)methyl]-4-[(2S)-3,3,3-trifluoro-2-hydroxypropyl]-2,4-dihydro-3H-1,2,4-triazol-3-one]"
14.5,241.4,3500,"COC1CCN(C(=O)c2ccccc2-n2cnc(Cn3nc(-c4ccc(Cl)cc4)n(C[C@H](O)C(F)(F)F)c3=O)n2)CC1 [Example 271, 5-(4-Chlorophenyl)-2-[(1-{2-[(4-methoxypiperidin-1-yl)carbonyl]phenyl}-1H-1,2,4-triazol-3-yl)methyl]-4-[(2S)-3,3,3-trifluoro-2-hydroxypropyl]-2,4-dihydro-3H-1,2,4-triazol-3-one]"
5.85,299.1,1750,"CN(CC(F)(F)F)C(=O)c1ccccc1-n1cnc(Cn2nc(-c3ccc(Cl)cc3)n(C[C@H](O)C(F)(F)F)c2=O)n1 [Example 272, 2-[3-({3-(4-Chlorophenyl)-5-oxo-4-[(2S)-3,3,3-trifluoro-2-hydroxypropyl]-4,5-dihydro-1H-1,2,4-triazol-1-yl}methyl)-1H-1,2,4-triazol-1-yl]-N-methyl-N-(2,2,2-trifluoroethyl)benzamide]"
13,476.9,6200,"CN1CC2CC1CN2C(=O)c1ccccc1-n1cnc(Cn2nc(-c3ccc(Cl)cc3)n(C[C@H](O)C(F)(F)F)c2=O)n1 (stereo partly drawn) [Example 273, 5-(4-Chlorophenyl)-2-[(1-{2-[(5-methyl-2,5-diazabicyclo[2.2.1]hept-2-yl)carbonyl]phenyl}-1H-1,2,4-triazol-3-yl)methyl]-4-[(2S)-3,3,3-trifluoro-2-hydroxypropyl]-2,4-dihydro-3H-1,2,4-triazol-3-one]"
2.7,425.9,1150,"CN(C(=O)c1ccccc1-n1cnc(Cn2nc(-c3ccc(Cl)cc3)n(C[C@H](O)C(F)(F)F)c2=O)n1)C1CCCC1 [Example 276, 2-[3-({3-(4-Chlorophenyl)-5-oxo-4-[(2S)-3,3,3-trifluoro-2-hydroxypropyl]-4,5-dihydro-1H-1,2,4-triazol-1-yl}methyl)-1H-1,2,4-triazol-1-yl]-N-cyclopentyl-N-methylbenzamide]"
5.3,339.6,1800,"CC1(C)CCN(C(=O)c2ccccc2-n2cnc(Cn3nc(-c4ccc(Cl)cc4)n(C[C@H](O)C(F)(F)F)c3=O)n2)CC1 [Example 277, 5-(4-Chlorophenyl)-2-[(1-{2-[(4,4-dimethylpiperidin-1-yl)carbonyl]phenyl}-1H-1,2,4-triazol-3-yl)methyl]-4-[(2S)-3,3,3-trifluoro-2-hydroxypropyl]-2,4-dihydro-3H-1,2,4-triazol-3-one]"
1.6,253.1,405,"O=C(c1ccccc1-n1cnc(Cn2nc(-c3ccc(Cl)cc3)n(C[C@H](O)C(F)(F)F)c2=O)n1)N1CCCCO1 [Example 278, 5-(4-Chlorophenyl)-2-({1-[2-(1,2-oxazinan-2-ylcarbonyl)phenyl]-1H-1,2,4-triazol-3-yl}methyl)-4-[(2S)-3,3,3-trifluoro-2-hydroxypropyl]-2,4-dihydro-3H-1,2,4-triazol-3-one]"
27.5,98.2,2700,"O=C1CN(C(=O)c2ccccc2-n2cnc(Cn3nc(-c4ccc(Cl)cc4)n(C[C@H](O)C(F)(F)F)c3=O)n2)CN1 [Example 279, 5-(4-Chlorophenyl)-2-[(1-{2-[(4-oxoimidazolidin-1-yl)carbonyl]phenyl}-1H-1,2,4-triazol-3-yl)methyl]-4-[(2S)-3,3,3-trifluoro-2-hydroxypropyl]-2,4-dihydro-3H-1,2,4-triazol-3-one]"
1.12,2500.0,2800,"CC1(C)COCCN1C(=O)c1ccccc1-n1cnc(Cn2nc(-c3ccc(Cl)cc3)n(C[C@H](O)C(F)(F)F)c2=O)n1 [Example 281, 5-(4-Chlorophenyl)-2-[(1-{2-[(3,3-dimethylmorpholin-4-yl)carbonyl]phenyl}-1H-1,2,4-triazol-3-yl)methyl]-4-[(2S)-3,3,3-trifluoro-2-hydroxypropyl]-2,4-dihydro-3H-1,2,4-triazol-3-one]"
2,485.0,970,"O=C(c1ccccc1-n1cnc(Cn2nc(-c3ccc(Cl)cc3)n(C[C@H](O)C(F)(F)F)c2=O)n1)N1CCCOCC1 [Example 284, 5-(4-Chlorophenyl)-2-({1-[2-(1,4-oxazepan-4-ylcarbonyl)phenyl]-1H-1,2,4-triazol-3-yl}methyl)-4-[(2S)-3,3,3-trifluoro-2-hydroxypropyl]-2,4-dihydro-3H-1,2,4-triazol-3-one]"
1.9,231.6,440,"O=C(c1ccccc1-n1cnc(Cn2nc(-c3ccc(Cl)cc3)n(C[C@H](O)C(F)(F)F)c2=O)n1)N1CCCO1 [Example 285, 5-(4-Chlorophenyl)-2-({1-[2-(1,2-oxazolidin-2-ylcarbonyl)phenyl]-1H-1,2,4-triazol-3-yl}methyl)-4-[(2S)-3,3,3-trifluoro-2-hydroxypropyl]-2,4-dihydro-3H-1,2,4-triazol-3-one]"
